The values below come from article PMC10368209, “Indolo[2,3-e]benzazocines and indolo[2,3-f]benzazonines and their copper(II) complexes as microtubule destabilizing agents” (Dalton Transactions (Cambridge, England : 2003), 2023).

The test system of one assay is purified tubulin. The assay is described as follows: Inhibition of tubulin assembly (turbidity). Format: biochemical. As to conditions: 10 μM tubulin, 30 °C, turbidity at 350 nm; read-out: Inhibition of tubulin assembly IC50 ± SD. As to the method: The methods used to determine the IC50 values for tubulin assembly and inhibition of [^3H]colchicine binding were recently described in detail.[96] In brief, for the assembly assay, 0.25 mL reaction mixtures contained 1.0 mg mL^−1 (10 μM) tubulin, 0.8 M monosodium glutamate (pH 6.6 with HCl in 2.0 M stock solution), 4% (v/v) DMSO (compound solvent), varying compound concentrations, and 100 μM GTP. All components except GTP were preincubated at 30 °C for 15 min in a 0.24 mL volume. Reaction mixtures were then placed on ice, and the GTP was added in a 10 μL volume. Assembly was monitored in Beckman DU7400/7500 spectrophotometers equipped with electronic temperature controllers and driven by a custom program. The samples were transferred to cuvettes held at 0 °C, and the temperature was jumped to 30 °C over about 30 s. Change in turbidity was measured for 20 min at 350 nm, and the IC50 was defined as the compound concentration that reduced the extent of reaction by 50%. For the colchicine binding assay, reaction mixtures contained 0.05 mg mL^−1 (0.5 μM) tubulin, 5.0 μM [^3H]colchicine, 5% (v/v) DMSO (compound solvent), compound as indicated, and components found to stabilize the colchicine binding activity of tubulin. […] The filters were counted in a Beckman scintillation counter, with correction for the amount of radiolabel bound to filters in the absence of tubulin.

The test system of assay [1] is tubulin (colchicine site). The assay is described as follows: Inhibition of [3H]colchicine binding to tubulin. Particulars: 0.5 μM tubulin, 5 μM [3H]colchicine. As to the method:
The methods used to determine the IC50 values for tubulin assembly and inhibition of [^3H]colchicine binding were recently described in detail.[96] In brief, for the assembly assay, 0.25 mL reaction mixtures contained 1.0 mg mL^−1 (10 μM) tubulin, 0.8 M monosodium glutamate (pH 6.6 with HCl in 2.0 M stock solution), 4% (v/v) DMSO (compound solvent), varying compound concentrations, and 100 μM GTP. All components except GTP were preincubated at 30 °C for 15 min in a 0.24 mL volume. Reaction mixtures were then placed on ice, and the GTP was added in a 10 μL volume. Assembly was monitored in Beckman DU7400/7500 spectrophotometers equipped with electronic temperature controllers and driven by a custom program. The samples were transferred to cuvettes held at 0 °C, and the temperature was jumped to 30 °C over about 30 s. Change in turbidity was measured for 20 min at 350 nm, and the IC50 was defined as the compound concentration that reduced the extent of reaction by 50%. For the colchicine binding assay, reaction mixtures contained 0.05 mg mL^−1 (0.5 μM) tubulin, 5.0 μM [^3H]colchicine, 5% (v/v) DMSO (compound solvent), compound as indicated, and components found to stabilize the colchicine binding activity of tubulin. Incubation was for 10 min at 37 °C, at which time the amount of colchicine bound to the tubulin is 40–60% of maximum. Each reaction mixture was diluted with 2.0 mL of ice cold water and poured onto a single Whatman DEAE-cellulose filter (tubulin binds tightly to the filter, and unbound colchicine passes through). Gravity filtration was used for the samples, and the filters were then washed with three 2.0 mL aliquots of ice cold water (vacuum aspiration). The filters were counted in a Beckman scintillation counter, with correction for the amount of radiolabel bound to filters in the absence of tubulin.

The subject of assay [2] is Colo205 human colon adenocarcinoma cell line. The assay is described as follows: In vitro cytotoxicity MTT assay. Format: cell-based. Particulars: 72 h incubation, MTT. The source says: (§1) Four cell lines were used in this study: the doxorubicin-sensitive Colo205 (CCL-222, ATCC, Manassas, VA, USA) human colon adenocarcinoma cell line; the doxorubicin-resistant Colo320/MDR-LRP expressing P-glycoprotein (P-gp, ABCB1) (MDR1)-LRP (CCL-220.1, ATCC) human colon adenocarcinoma cell line; the hormone-responsive MCF-7 breast cancer cell line and the normal MRC-5 human embryonal lung fibroblast cell line (CCL-171, ATCC). The human cancer cell lines were purchased from LGC Promochem (Teddington, UK), and the MRC-5 cell line is a Sigma-Aldrich (Merck KGaA, Darmstadt, Germany) product. The Colo205 and Colo320 cell lines were cultured in RPMI 1640 medium supplemented with 10% fetal bovine serum (FBS), 2 mM L-glutamine, 1 mM Na-pyruvate and 10 mM HEPES. The MCF-7 and MRC-5 cells were cultured in Eagle's Minimal Essential Medium (EMEM) containing 4.5 g L^−1 of glucose and supplemented with a non-essential amino acid mixture, a selection of vitamins and 10% FBS. All cell lines were incubated at 37 °C, 5% CO2, 95% air atmosphere. The cells were detached with Trypsin-Versene (EDTA) solution for 5 min at 37 °C.
(§2) Prior to the cytotoxicity assays 10 mM stock solutions of the tested compounds were prepared in DMSO. These stock solutions were diluted with the culture medium (EMEM or RPMI 1640), and twofold serial dilutions of the compounds were prepared in 100 μL of the appropriate medium. […] The positive control was doxorubicin (Merck), and CuCl2 was also tested. All cancer cells were treated with Trypsin-Versene (EDTA) solution. A cell density of 1 × 10^4 cells was adjusted for the colon adenocarcinoma cells in 100 μL of RPMI 1640 medium and were added to each well, except for the medium control wells. The final volume was 200 μL in the wells containing compounds and cells. The MCF-7 and MRC-5 cells were seeded overnight prior to the assay. The following day, the serial dilution of the compounds were made in separate plates and added to the cells. The culture plates were incubated at 37 °C for 72 h; and at the end of the incubation period, 20 μL of 5 mg mL^−1 3-(4,5-dimethylthiazol-2-yl)-2,5-diphenyltetrazolium bromide (MTT) solution was added to each well and incubated for 4 h at 37 °C. The plates were further incubated at 37 °C overnight following the addition of 100 μL of sodium dodecyl sulfate (SDS) solution (10% in 0.01 M HCl). The optical density (OD) was measured at 450 nm (ref. 620 nm) with a Multiscan EX ELISA reader to follow the cell growth. Inhibition of cell growth (expressed as IC50: inhibitory concentration that reduces by 50% the growth of the cells exposed to the tested compounds) was determined from the sigmoid curve, where 100 − ((ODsample − ODmedium control)/(ODcell control − ODmedium control)) × 100 values were plotted against the logarithm of compound concentrations. The sigmoidal dose–response model (comparing variable and fixed slopes) of the GraphPad Prism software[88] was used to fit the curves. The IC50 values are averages from at least 3 independent experiments.
A general note: Formazan colour is commonly taken as a measure of viable cells.

Assay [3] relates to doxorubicin-resistant Colo320 human colon adenocarcinoma cell line. Put plainly: In vitro cytotoxicity MTT assay. The format is cell-based. As to conditions: 72 h incubation, MTT.
Text: as §1, §2

Assay [4] concerns normal human embryonal lung fibroblast cells (MRC-5). The assay is described as follows: In vitro cytotoxicity MTT assay. Particulars: 72 h incubation. The format is cell-based.
Text: as §1, §2

The subject of assay [5] is MCF-7 breast cancer cells. The assay is described as follows: In vitro cytotoxicity MTT assay. The format is cell-based, human. As to conditions: 72 h incubation, MTT. As to the method: The human cancer cell lines were purchased from LGC Promochem (Teddington, UK), and the MRC-5 cell line is a Sigma-Aldrich (Merck KGaA, Darmstadt, Germany) product. […] The MCF-7 and MRC-5 cells were cultured in Eagle's Minimal Essential Medium (EMEM) containing 4.5 g L^−1 of glucose and supplemented with a non-essential amino acid mixture, a selection of vitamins and 10% FBS. […] The cells were detached with Trypsin-Versene (EDTA) solution for 5 min at 37 °C.
Prior to the cytotoxicity assays 10 mM stock solutions of the tested compounds were prepared in DMSO. […] The positive control was doxorubicin (Merck), and CuCl2 was also tested. All cancer cells were treated with Trypsin-Versene (EDTA) solution. […] The final volume was 200 μL in the wells containing compounds and cells. The MCF-7 and MRC-5 cells were seeded overnight prior to the assay. The following day, the serial dilution of the compounds were made in separate plates and added to the cells. The culture plates were incubated at 37 °C for 72 h; and at the end of the incubation period, 20 μL of 5 mg mL^−1 3-(4,5-dimethylthiazol-2-yl)-2,5-diphenyltetrazolium bromide (MTT) solution was added to each well and incubated for 4 h at 37 °C. The plates were further incubated at 37 °C overnight following the addition of 100 μL of sodium dodecyl sulfate (SDS) solution (10% in 0.01 M HCl). The optical density (OD) was measured at 450 nm (ref. 620 nm) with a Multiscan EX ELISA reader to follow the cell growth. […] The sigmoidal dose–response model (comparing variable and fixed slopes) of the GraphPad Prism software[88] was used to fit the curves. The IC50 values are averages from at least 3 independent experiments.

Several values for one entry are separate records, joined by “and”; a condition that tells them apart may be missing. Equal values may be shown once.

Usually IC50 stands for the concentration at which inhibition is half-maximal. For `COc1ccc(/C=C\c2cc(OC)c(OC)c(OC)c2)cc1O` [CA-4, combretastatin A-4, reference compound], the IC50 in the assay on purified tubulin is […]. The “Inhibition of colchicine binding % inhibition ± SD” value in assay [1] (0.5 μM inhibitor) is 81 ± 4%; in assay [1] (5 μM inhibitor), 98 ± 0.9%.

Regarding `[Cl][Cu][Cl]` [CuCl2, reference compound], the IC50 in assay [2] amounted to 33 ± 1 µM; in assay [3] it was 20 ± 2 µM; in assay [4], 40 ± 1 µM; in assay [5], 32 ± 3 µM.
